Laboratory results: patent US6667337B2, “Combination therapy for cancer” (Cancer Research Technology Limited, priority 2000, dated 2003)

Legend:
[1] = Host toxicity (lethality, body weight 4-5 days after drug treatment); assay type: in vivo, female C3H/HeN mice
Method: (§1) Murine mammary carcinoma MDAH—MCa-4 tumours were grown in female C3H/HeN mice from stocks stored in liquid nitrogen at the sixth transplant generation, and were passaged and used for experiments at the eighth transplant generation. Tumours for experiments were grown by inoculating 20 μl of cell suspension (5 mg packed cells) intramuscularly in the right gastrocenmius muscle. Animals were randomised to treatment groups, and treated with drugs when the dliameter of the tumour-bearing leg reached 10-11 mm (ca 0.6 g tumour), approximately 18 days after inoculation. […] Both compounds were administered essentially at the same time (within 1 min). Host toxicity was assessed by determination of lethality, and by measurement of body weight 4-5 days after drug treatment. The diameter of the tumour-bearing leg was measured three times weekly until values exceeded 13 mm (ca 1.4 g tumour) at which time the animals were terminated. The growth curve for each individual tumour was plotted as in FIG. 1, and the time-to-endpoint (TTE, time from treatment to endpoint) was determined for each mouse. The median and mean TTE was determined for each treatment group. The mean tumour growth delay for each group was calculated as the difference between mean TTE for treated and control groups. The statistical significance of the antitumour effects was tested using ANOVA followed by Dunnett's test to determine p values for the significance of differences between individual groups.

[2] = system: Murine mammary carcinoma MDAH-MCa-4 tumours; assay: Antitumour activity (tumour growth delay, cures) against MDAH-MCa-4 tumour; assay type: in vivo, female C3H/HeN mice; details: for Growth delay (days) Median: interim analysis
Method: as §1

[3] = paclitaxel 23.7 μmol/kg alone, group 120/C
[4] = DMXAA 80 μmol/kg alone, group 120/B

| Structure (SMILES) | % Body weight change (d4-5) Mean [1, 3] | Number of mice Deaths ([1]; paclitaxel 23.7 μmol/kg alone, group 120/C, 7 mice treated, interim analysis) | host toxicity (in words) ([1]; paclitaxel alone, 42 μmol/kg) | Growth delay (days) Median [2, 3] | antitumour activity (in words) ([2]; paclitaxel alone, up to 42 μmol/kg) | % Body weight change (d4-5) Mean [1, 4] | Growth delay (days) Median [2, 4] |
| --- | --- | --- | --- | --- | --- | --- | --- |
| CC(=O)O[C@H]1C(=O)[C@@]2(C)[C@H]([C@H](OC(=O)c3ccccc3)[C@]3(O)C[C@H](OC(=O)[C@H](O)[C@@H](NC(=O)c4ccccc4)c4ccccc4)C(C)=C1C3(C)C)[C@]1(OC(C)=O)CO[C@@H]1C[C@@H]2O [Paclitaxel, paclitaxel] | −0.1% | 1 | not demonstrably toxic | 3.5 days | little antitumour activity |  |  |
| Cc1ccc2c(=O)c3cccc(CC(=O)O)c3oc2c1C [DMXAA, 5,6-dimethylxanthenone-4-acetic acid] |  |  |  |  |  | −6.0% | 17.9 days |
